This test addresses 11β-HSD1 (Homo sapiens (Human), UniProt P28845). The test is described as follows: Biological Test Example 4: HTRF assay of 11β-HSD1 in human liver microsomes. It is filed as biochemical. As to conditions: HTRF cortisol detection. The protocol: In vitro inhibition of 11β-HSD1 by test compounds is determined with HTRF (Homogeneous Time-Resolved Fluorescence) technology (cisbio international, France) detecting cortisol generated from […] by human liver microsomes. […] Cortisol generated in the reaction is then detected with a competitive immunoassay, involving two HTRF conjugates: cortisol linked to XL665 and anti-cortisol antibody labeled with Europium cryptate. The incubation period for detection reaction is typically 2 hours. […] The ratio of the two emission signals is then calculated (Em665*10000/Em615). […] Each assay also contains a calibration curve with cortisol to transform the fluorescent data into cortisol concentrations. Percent inhibition (% CTL) of each compound is determined relative to the carbenoxolone signal and IC50 curves are generated.

Chain of 11β-HSD1 (P28845 whole entry): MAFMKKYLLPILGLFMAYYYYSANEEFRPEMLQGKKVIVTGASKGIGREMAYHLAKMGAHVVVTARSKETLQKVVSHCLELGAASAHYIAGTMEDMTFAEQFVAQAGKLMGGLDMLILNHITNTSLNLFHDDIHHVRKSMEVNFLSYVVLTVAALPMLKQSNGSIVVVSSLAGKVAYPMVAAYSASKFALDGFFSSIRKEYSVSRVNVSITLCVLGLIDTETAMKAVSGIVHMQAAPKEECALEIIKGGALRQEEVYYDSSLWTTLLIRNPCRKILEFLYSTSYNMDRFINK

In turn, `N#Cc1ccnc(O[C@@H]2CCN(C(=O)OC3C4CC5CC3CC(O)(C5)C4)C2)c1` (stereo partly drawn) [Example 79, (R)-3-(4-Cyano-hyridin-2-yloxy)-pyrrolidine-1-carboxylic acid 5-hydroxy-adamantan-2-yl ester] yielded an IC50 above 10 µM.
